Test results reported in the NIST ThermoML archive (doi:10.1016/j.jct.2017.06.013).
Numbers after ± are expanded uncertainties.

Assay: xn = mol fraction of the nth substance listed
Details: Liquid, Vibrating tube method

CC(C)OC(C)C [diisopropyl ether] + CCCCCCO
mass density [kg/m3]
Details	x1 = 0.1524	x1 = 0.3196	x1 = 0.4906	x1 = 0.6974	x1 = 0.8457
333.15 K, 140000 kPa	–	–	831.4 ± 1.2	817.4 ± 1.2	807 ± 1.3
353.15 K, 100 kPa	759.2 ± 0.7	741.7 ± 0.7	722.5 ± 0.7	698 ± 0.7	679.1 ± 0.7
353.15 K, 500 kPa	759.5 ± 0.7	742.1 ± 0.7	723 ± 0.7	698.5 ± 0.7	679.8 ± 0.7
353.15 K, 1000 kPa	760 ± 0.7	742.7 ± 0.7	723.6 ± 0.7	699.3 ± 0.7	680.7 ± 0.7
353.15 K, 2000 kPa	761 ± 0.7	743.8 ± 0.7	724.9 ± 0.7	700.8 ± 0.7	682.5 ± 0.7
353.15 K, 5000 kPa	764 ± 0.7	747.1 ± 0.7	728.8 ± 0.7	705.4 ± 0.7	687.6 ± 0.7
353.15 K, 10000 kPa	768.7 ± 0.7	752.4 ± 0.7	734.8 ± 0.7	712.3 ± 0.8	695.5 ± 0.8
353.15 K, 15000 kPa	773.1 ± 0.8	757.3 ± 0.8	740.2 ± 0.8	718.7 ± 0.8	702.5 ± 0.8
353.15 K, 20000 kPa	777.3 ± 0.8	761.9 ± 0.8	745.3 ± 0.8	724.5 ± 0.8	708.9 ± 0.8
353.15 K, 30000 kPa	785 ± 0.8	770.4 ± 0.8	754.6 ± 0.8	735 ± 0.8	720.4 ± 0.8
353.15 K, 40000 kPa	792 ± 0.8	778 ± 0.8	762.9 ± 0.9	744.3 ± 0.9	730.4 ± 0.9
353.15 K, 50000 kPa	798.5 ± 0.9	785 ± 0.9	770.5 ± 0.9	752.6 ± 0.9	739.4 ± 0.9
353.15 K, 60000 kPa	804.6 ± 0.9	791.6 ± 0.9	777.6 ± 0.9	760.6 ± 1	747.7 ± 1
353.15 K, 70000 kPa	810.3 ± 0.9	797.7 ± 0.9	784.2 ± 1	767.6 ± 1	755.2 ± 1
353.15 K, 80000 kPa	815.7 ± 1	803.3 ± 1	790.1 ± 1	774.1 ± 1	762.1 ± 1.1
353.15 K, 90000 kPa	820.8 ± 1	808.9 ± 1	796.1 ± 1.1	780.4 ± 1.1	768.7 ± 1.1
353.15 K, 100000 kPa	825.7 ± 1	814 ± 1.1	801.5 ± 1.1	786.2 ± 1.1	774.8 ± 1.2
353.15 K, 110000 kPa	830.4 ± 1.1	818.9 ± 1.1	806.7 ± 1.1	791.7 ± 1.2	780.5 ± 1.2
353.15 K, 120000 kPa	834.9 ± 1.1	823.6 ± 1.1	811.6 ± 1.2	796.9 ± 1.2	786 ± 1.3
353.15 K, 130000 kPa	839.1 ± 1.1	828 ± 1.2	816.3 ± 1.2	801.9 ± 1.3	791.1 ± 1.3
353.15 K, 140000 kPa	843.2 ± 1.1	832.4 ± 1.2	820.8 ± 1.2	806.6 ± 1.3	796 ± 1.3
373.15 K, 100 kPa	741.8 ± 5.4	723.3 ± 5.4	702.7 ± 5.4	676.5 ± 5.4	656.3 ± 5.4
373.15 K, 500 kPa	742 ± 0.7	723.5 ± 0.7	703.1 ± 0.7	677 ± 0.7	657 ± 0.7
373.15 K, 1000 kPa	742.6 ± 0.7	724.1 ± 0.7	703.9 ± 0.7	678 ± 0.7	658.1 ± 0.7
373.15 K, 2000 kPa	743.8 ± 0.7	725.5 ± 0.7	705.4 ± 0.7	679.9 ± 0.7	660.3 ± 0.7
373.15 K, 5000 kPa	747.1 ± 0.7	729.2 ± 0.7	709.9 ± 0.7	685.2 ± 0.7	666.5 ± 0.7
373.15 K, 10000 kPa	752.4 ± 0.7	735.3 ± 0.7	716.7 ± 0.8	693.4 ± 0.8	675.7 ± 0.8
373.15 K, 15000 kPa	757.3 ± 0.8	740.8 ± 0.8	723 ± 0.8	700.7 ± 0.8	683.8 ± 0.8
373.15 K, 20000 kPa	761.9 ± 0.8	745.9 ± 0.8	728.8 ± 0.8	707.3 ± 0.8	691.2 ± 0.8
373.15 K, 30000 kPa	770.5 ± 0.8	755.4 ± 0.8	739.1 ± 0.8	719.1 ± 0.8	704.1 ± 0.9
373.15 K, 40000 kPa	778.2 ± 0.8	763.8 ± 0.9	748.4 ± 0.9	729.4 ± 0.9	715.3 ± 0.9
373.15 K, 50000 kPa	785.2 ± 0.9	771.3 ± 0.9	756.6 ± 0.9	738.5 ± 0.9	725 ± 1
373.15 K, 60000 kPa	791.8 ± 0.9	778.4 ± 0.9	764.2 ± 1	746.9 ± 1	733.9 ± 1
373.15 K, 70000 kPa	797.9 ± 0.9	784.9 ± 1	771.3 ± 1	754.5 ± 1	742 ± 1.1
373.15 K, 80000 kPa	803.8 ± 1	791.2 ± 1	778 ± 1	761.8 ± 1.1	749.5 ± 1.1
373.15 K, 90000 kPa	809.2 ± 1	796.9 ± 1	784 ± 1.1	768.3 ± 1.1	756.4 ± 1.2
373.15 K, 100000 kPa	814.3 ± 1.1	802.4 ± 1.1	789.8 ± 1.1	774.4 ± 1.2	762.8 ± 1.2
373.15 K, 110000 kPa	819.4 ± 1.1	807.6 ± 1.1	795.3 ± 1.2	780.3 ± 1.2	769 ± 1.3
373.15 K, 120000 kPa	824.2 ± 1.1	812.6 ± 1.2	800.6 ± 1.2	785.9 ± 1.3	774.7 ± 1.3
373.15 K, 130000 kPa	828.6 ± 1.2	817.3 ± 1.2	805.5 ± 1.2	791.1 ± 1.3	780.2 ± 1.3
373.15 K, 140000 kPa	833 ± 1.2	821.8 ± 1.2	810.2 ± 1.3	796.1 ± 1.3	785.3 ± 1.4
393.15 K, 500 kPa	724.7 ± 0.7	705 ± 0.7	683.5 ± 0.7	655.7 ± 0.7	634.2 ± 0.7
393.15 K, 1000 kPa	725.4 ± 0.7	705.7 ± 0.7	684.4 ± 0.7	656.8 ± 0.7	635.6 ± 0.7
393.15 K, 2000 kPa	726.7 ± 0.7	707.3 ± 0.7	686.3 ± 0.7	659.1 ± 0.7	638.4 ± 0.7
393.15 K, 5000 kPa	730.5 ± 0.7	711.7 ± 0.7	691.5 ± 0.7	665.6 ± 0.7	645.9 ± 0.8
393.15 K, 10000 kPa	736.6 ± 0.7	718.7 ± 0.8	699.5 ± 0.8	675.3 ± 0.8	657 ± 0.8
393.15 K, 15000 kPa	742.1 ± 0.8	724.9 ± 0.8	706.6 ± 0.8	683.6 ± 0.8	666.4 ± 0.8
393.15 K, 20000 kPa	747.3 ± 0.8	730.7 ± 0.8	713.2 ± 0.8	691.2 ± 0.8	674.9 ± 0.8
393.15 K, 30000 kPa	756.7 ± 0.8	741.1 ± 0.8	724.7 ± 0.8	704.4 ± 0.9	689.3 ± 0.9
393.15 K, 40000 kPa	765.3 ± 0.9	750.4 ± 0.9	735 ± 0.9	715.8 ± 0.9	701.7 ± 0.9
393.15 K, 50000 kPa	772.8 ± 0.9	758.6 ± 0.9	743.9 ± 0.9	725.7 ± 1	712.2 ± 1
393.15 K, 60000 kPa	779.9 ± 0.9	766.4 ± 0.9	752.2 ± 1	734.8 ± 1	721.9 ± 1
393.15 K, 70000 kPa	786.7 ± 1	773.5 ± 1	759.9 ± 1	743.1 ± 1.1	730.7 ± 1.1
393.15 K, 80000 kPa	792.8 ± 1	779.9 ± 1	766.8 ± 1.1	750.5 ± 1.1	738.5 ± 1.1
393.15 K, 90000 kPa	798.6 ± 1	786.1 ± 1.1	773.4 ± 1.1	757.6 ± 1.2	745.9 ± 1.2
393.15 K, 100000 kPa	804.1 ± 1.1	791.8 ± 1.1	779.5 ± 1.2	764.1 ± 1.2	752.7 ± 1.2
393.15 K, 110000 kPa	809.4 ± 1.1	797.5 ± 1.2	785.4 ± 1.2	770.3 ± 1.2	759.2 ± 1.3
393.15 K, 120000 kPa	814.4 ± 1.2	802.7 ± 1.2	790.8 ± 1.2	776.1 ± 1.3	765.1 ± 1.3
393.15 K, 130000 kPa	819.1 ± 1.2	807.6 ± 1.2	796 ± 1.3	781.5 ± 1.3	770.8 ± 1.4
393.15 K, 140000 kPa	823.7 ± 1.2	812.4 ± 1.3	801 ± 1.3	786.8 ± 1.4	776.3 ± 1.4
